Measurements reported in patent publication US8362000B2, “Azetidinyl diamides as monoacylglycerol lipase inhibitors” (Janssen Pharmaceutica NV, priority 2009, dated 2013).
Numbering of substitutions follows the chain as printed. Read-outs that look alike come from different tables or passages of the source.

Experiments:
[1] = molecular target: T1, mutant MGL (Homo sapiens, UniProt Q99685, L169S/L176S); test: MGL ThermoFluor assay - mutant; assay type: binding
T1 sequence (Q99685 1-303 L169S/L176S): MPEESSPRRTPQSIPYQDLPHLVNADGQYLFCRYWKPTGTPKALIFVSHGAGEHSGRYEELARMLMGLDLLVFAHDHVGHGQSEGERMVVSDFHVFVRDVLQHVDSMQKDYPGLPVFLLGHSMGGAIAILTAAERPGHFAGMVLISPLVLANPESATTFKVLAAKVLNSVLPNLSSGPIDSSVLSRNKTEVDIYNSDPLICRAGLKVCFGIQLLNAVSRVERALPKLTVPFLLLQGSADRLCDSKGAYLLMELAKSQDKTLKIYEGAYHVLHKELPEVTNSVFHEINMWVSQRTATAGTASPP

[2] = molecular target: T2, purified wild type MGL (wt-MGLL 6H-11-313) (Homo sapiens, UniProt Q99685)
T2 sequence (Q99685 1-303): T1 sequence (Q99685 1-303 L169S/L176S) with S169L, S176L

[3] = ThermoFluor, compound concentration measured by qNMR, read-out: MGL mutant ThermoFluor qKd (using qNMR conc.)
[4] = ThermoFluor concentration-response, read-out: MGL mutant ThermoFluor Kd
[5] = ThermoFluor thermal stability binding assay, read-out: MGL mutant ThermoFluor Kd
[6] = compound concentration measured by qNMR, read-out: MGL mutant ThermoFluor qKd (using qNMR conc.)
[7] = ThermoFluor, compound concentration measured by qNMR, read-out: MGL mutant ThermoFluor qKd (μM) (using qNMR conc.)

Compound	IC50 [2]	also measured
O=C(c1cnc2cc(Cl)ccc2c1)N1CC(N2CCN(C(=O)c3nccs3)CC2)C1 [Cpd 787]	1210 nM	Kd [1, 3]: 0.247 µM
Cc1nc(-c2ccccc2F)sc1C(=O)N1CC(N2CCN(C(=O)c3cscn3)CC2)C1 [Cpd 1287]	2450 nM	Kd [1, 4]: 0.495 µM
Cc1ccc(-n2ccc3cc(C(=O)N4CC(N5CCN(C(=O)c6nccs6)CC5)C4)ccc32)nc1 [Cpd 1073, 1-(5-Methylpyridin-2-yl)-5-({3-[4-(1,3-thiazol-2-ylcarbonyl)piperazin-1-yl]azetidin-1-yl}carbonyl)-1H-indole]	34 nM	Kd [1, 3]: 0.087 µM
O=C(c1ccc2c(c1)CCN2C(=O)c1ccccc1)N1CC(N2CCN(C(=O)c3nccs3)CC2)C1 [Cpd 724, 1-(Phenylcarbonyl)-5-({3-[4-(1,3-thiazol-2-ylcarbonyl)piperazin-1-yl]azetidin-1-yl}carbonyl)-2,3-dihydro-1H-indole]	206 nM	Kd [1, 4]: 0.05 µM
COc1ccc2c(C)c(C(=O)N3CC(N4CCN(C(=O)c5cscn5)CC4)C3)oc2c1 [Cpd 850]	7280 nM	Kd [1, 4]: 1 µM
O=C(c1ccccc1)N1CCN(C2CN(C(=O)c3cccc4[nH]c(-c5ccc(F)cc5)nc34)C2)CC1 [Cpd 602]	1720 nM	Kd [1, 5]: 0.5 µM
Cc1nc2c(C)ccc(Cl)c2cc1C(=O)N1CC(N2CCN(C(=O)c3nccs3)CC2)C1 [Cpd 791]	1450 nM	Kd [1, 3]: 0.402 µM
O=C(c1nccs1)N1CCN(C2CN(C(=O)c3ccc4c(ccn4-c4ccc(F)cc4)c3Cl)C2)CC1 [Cpd 1414, 4-Chloro-1-(4-fluorophenyl)-5-({3-[4-(1,3-thiazol-2-ylcarbonyl)piperazin-1-yl]azetidin-1-yl}carbonyl)-1H-indole]	11 nM	Kd [1, 6]: 0.003 µM
O=C(c1nccs1)N1CCN(C2CN(C(=O)c3ccc4c(ccn4-c4ccc(F)cc4)c3F)C2)CC1 [Cpd 1348, 4-Fluoro-1-(4-fluorophenyl)-5-({3-[4-(1,3-thiazol-2-ylcarbonyl)piperazin-1-yl]azetidin-1-yl}carbonyl)-1H-indole]	< 5 nM	Kd [1, 6]: 0.002 µM
COc1cccc2c(C)c(C(=O)N3CC(N4CCN(C(=O)c5cscn5)CC4)C3)[nH]c12 [Cpd 840]	5160 nM	Kd [1, 4]: 2 µM
O=C(c1ccc2nn(Cc3ccc(C(F)(F)F)cc3)cc2c1)N1CC(N2CCN(C(=O)c3nccs3)CC2)C1 [Cpd 1037, 5-({3-[4-(1,3-Thiazol-2-ylcarbonyl)piperazin-1-yl]azetidin-1-yl}carbonyl)-2-[4-(trifluoromethyl)benzyl]-2H-indazole]	5 nM	Kd [1, 6]: 0.022 µM
O=C(c1ccc2[nH]c(-c3ccccc3)nc2c1)N1CCN(C2CN(C(=O)c3ccccc3)C2)CC1 [Cpd 611]	13300 nM	Kd [1, 4]: 5.15 µM
O=C(c1ccc2c(c1)[nH]c(=O)n2CCC(F)(F)F)N1CC(N2CCN(C(=O)c3cscn3)CC2)C1 [Cpd 944]	7320 nM	Kd [1, 4]: 0.802 µM
O=C(c1sc2cc(C(F)(F)F)ccc2c1Cl)N1CC(N2CCN(C(=O)C(F)(F)F)CC2)C1 [Cpd 656, 1-(1-{[3-Chloro-6-(trifluoromethyl)-1-benzothiophen-2-yl]carbonyl}azetidin-3-yl)-4-(trifluoroacetyl)piperazine]	8 nM	Kd [1, 3]: 0.101 µM
CC1CN(C(=O)c2nccs2)CCN1C1CN(C(=O)c2ccc(Cc3ccccc3)cc2)C1 (centres unmarked) [Cpd 47, 1-{1-[(4-Benzylphenyl)carbonyl]azetidin-3-yl}-2-methyl-4-(1,3-thiazol-2-ylcarbonyl)piperazine]	129 nM	Kd [1, 4]: 0.0909 µM
O=C(c1cc2cc(-c3ccc(F)cc3)cnc2o1)N1CC(N2CCN(C(=O)c3nccs3)CC2)C1 [Cpd 1213]	206 nM	Kd [1, 7]: 0.765 µM
O=C(c1ccc2[nH]c(C3CCCCC3)nc2c1)N1CC(N2CCN(C(=O)c3nccs3)CC2)C1 [Cpd 735]	268 nM	Kd [1, 4]: 0.16 µM
O=C(c1ccc2nc(N3CCC(F)(F)CC3)sc2c1)N1CC(N2CCN(C(=O)c3nccs3)CC2)C1 [Cpd 671]	16 nM	Kd [1, 6]: 0.018 µM
Cc1c(C(=O)N2CC(N3CCN(C(=O)c4ccccc4)CC3)C2)sc2cc(F)ccc12 [Cpd 516]	465 nM	Kd [1, 5]: 0.04 µM
Cc1cc(C(=O)N2CC(N3CCN(C(=O)c4cscn4)CC3)C2)cc2ccn(-c3ccc(F)cc3)c12 [Cpd 1076]	8 nM	Kd [1, 6]: 0.02 µM
O=C(c1cscn1)N1CCN(C2CN(C(=O)c3[nH]c4nc(C(F)(F)F)ccc4c3Br)C2)CC1 [Cpd 774]	848 nM	Kd [1, 3]: 0.254 µM
O=C(c1ccc(-c2ccccc2)cc1)N1CC(N2CCN(C(=O)c3ccon3)CC2)C1 [Cpd 1262]	950 nM	Kd [1, 5]: 0.278 µM
Cc1nc2cc(C(=O)N3CC(N4CCN(C(=O)c5cscn5)CC4)C3)ccc2n1-c1ccccc1 [Cpd 1296]	3300 nM	Kd [1, 6]: 0.197 µM

Compound	IC50 [2]	also measured
Cc1c(C(=O)N2CC(N3CCN(C(=O)c4nccs4)CC3)C2)[nH]c2ccc(-c3ccnn3C)cc12 [Cpd 1205]	168 nM	Kd [1, 7]: 0.008 µM
COc1c(C(=O)N2CC(N3CCN(C(=O)c4nccs4)CC3)C2)sc2cc(C(F)(F)F)ccc12 [Cpd 649, 1-(1-{[3-Methoxy-6-(trifluoromethyl)-1-benzothiophen-2-yl]carbonyl}azetidin-3-yl)-4-(1,3-thiazol-2-ylcarbonyl)piperazine]	6 nM	Kd [1, 6]: 0.001 µM
O=C(c1ccc(-n2cnc3ccccc32)cc1)N1CCN(C2CN(C(=O)c3nccs3)C2)CC1 [Cpd 1298]	3850 nM	Kd [1, 4]: 0.474 µM
Cc1nc2cc(C(=O)N3CCN(C4CN(C(=O)c5nccs5)C4)CC3)ccc2n1C1CCCCC1 [Cpd 793]	1460 nM	Kd [1, 4]: 0.198 µM
O=C(c1ccc(Oc2cc(C(F)(F)F)ccn2)cc1)N1CC(N2CCN(C(=O)C(F)(F)F)CC2)C1 [Cpd 837]	5040 nM	Kd [1, 6]: 20 µM
O=C(c1ccc2c(c1)CCN(C(=O)C1CCC(F)(F)CC1)C2)N1CC(N2CCN(C(=O)c3nccs3)CC2)C1 [Cpd 729]	236 nM	Kd [1, 5]: 0.185 µM
O=C(c1ccc(OCc2cccc(Cl)c2)cc1)N1CC(N2CCN(C(=O)c3nccs3)CC2)C1 [Cpd 957]	< 5 nM	Kd [1, 5]: 0.008 µM
O=C(c1cc(-c2cccc(C(F)(F)F)c2)cs1)N1CC(N2CCN(C(=O)c3nccs3)CC2)C1 [Cpd 1321]	< 5 nM	Kd [1, 7]: 0.067 µM
O=C(c1ccc2nc(-c3nccs3)sc2c1)N1CC(N2CCN(C(=O)c3nccs3)CC2)C1 [Cpd 1210]	195 nM	Kd [1, 7]: 0.097 µM
O=C(c1ccccc1)c1c[nH]c(C(=O)N2CC(N3CCN(C(=O)c4nccs4)CC3)C2)c1 [Cpd 874]	15200 nM	Kd [1, 3]: 8.46 µM
Cc1c(C(=O)N2CC(N3CCN(C(=O)c4nccs4)CC3)C2)oc2c(F)cccc12 [Cpd 794]	1470 nM	Kd [1, 4]: 2.11 µM
O=C(c1ccc(-c2ccccc2)cc1)N1CCN(C2CN(C(=O)c3cscn3)C2)CC1 [Cpd 1246, 1-(Biphenyl-4-ylcarbonyl)-4-[1-(1,3-thiazol-4-ylcarbonyl)azetidin-3-yl]piperazine]	506 nM	Kd [1, 4]: 0.042 µM
O=C(c1nccs1)N1CCN(C2CN(C(=O)c3ccccc3NCc3ccccc3)C2)CC1 [Cpd 775]	862 nM	Kd [1, 5]: 0.333 µM
O=C(c1ccc2c(cnn2Cc2ccc(C(F)(F)F)cc2)c1)N1CC(N2CCN(C(=O)c3nccs3)CC2)C1 [Cpd 1036, 5-({3-[4-(1,3-Thiazol-2-ylcarbonyl)piperazin-1-yl]azetidin-1-yl}carbonyl)-1-[4-(trifluoromethyl)benzyl]-1H-indazole]	< 5 nM	Kd [1, 6]: 0.005 µM
Cc1cc(C(=O)N2CC(N3CCN(C(=O)c4nccs4)CC3)C2)c(C)n1CC(F)(F)F [Cpd 788]	1230 nM	Kd [1, 3]: 1.98 µM
Cc1c(C(=O)N2CC(N3CCN(C(=O)c4cscn4)CC3)C2)sc2nc(C(F)(F)F)ccc12 [Cpd 749]	387 nM	Kd [1, 7]: 0.036 µM
O=C(c1cscn1)N1CCN(C2CN(C(=O)c3cccc4nc(-c5cccc(Cl)c5)oc34)C2)CC1 [Cpd 1238]	437 nM	Kd [1, 5]: 0.125 µM
O=C(c1cnc2cc(Cl)c(Cl)cc2c1)N1CC(N2CCN(C(=O)c3nccs3)CC2)C1 [Cpd 743]	324 nM	Kd [1, 3]: 0.133 µM
O=C(c1ccc2c(ccn2-c2ccc(F)cc2)c1)N1CC(N2CCN(C(=O)c3cocn3)CC2)C1 [Cpd 1428]	14 nM	Kd [1, 7]: 0.018 µM
O=C(c1ccc2c(c1)ncn2C1CCC(F)(F)CC1)N1CC(N2CCN(C(=O)c3cscn3)CC2)C1 [Cpd 834]	4600 nM	Kd [1, 6]: 0.234 µM
O=C(c1cscn1)N1CCN(C2CN(C(=O)c3cn(-c4ccc(F)cc4)c4ccccc34)C2)CC1 [Cpd 1295]	3280 nM	Kd [1, 7]: 1.51 µM
O=C(c1cscn1)N1CCN(C2CN(C(=O)c3cc4cc(Br)cnc4o3)C2)CC1 [Cpd 1448]	> 16700 nM	Kd [1, 5]: 7.09 µM
Cc1c(C(=O)N2CCN(C3CN(C(=O)c4cncs4)C3)CC2)sc2cc(C(F)(F)F)ccc12 [Cpd 726]	218 nM	Kd [1, 4]: 0.127 µM
